Experimental data as given in ChEMBL document CHEMBL1129361, “Modulators of leukotriene biosynthesis and receptor activation” (J Med Chem, 1996).
One block for each molecule: values may come before it. Activity calls are given as the source filed them. No cut-off for these calls is given here.

Columns and labels:
Homo sapiens [1] = assay: Compound was tested for inhibition of LTD4 bronchoconstriction following 4 mg/kg oral dose; active; format: functional, organism-based; design: dose 4 mg/kg; settings: Lung
[2] = biological target: T1, Cysteinyl leukotriene receptor (Homo sapiens, UniProt Q9Y271+Q9NS75); assay: Binding affinity against Cysteinyl leukotriene D4 receptor; format: protein assay
T1 sequence (Q9Y271 whole entry): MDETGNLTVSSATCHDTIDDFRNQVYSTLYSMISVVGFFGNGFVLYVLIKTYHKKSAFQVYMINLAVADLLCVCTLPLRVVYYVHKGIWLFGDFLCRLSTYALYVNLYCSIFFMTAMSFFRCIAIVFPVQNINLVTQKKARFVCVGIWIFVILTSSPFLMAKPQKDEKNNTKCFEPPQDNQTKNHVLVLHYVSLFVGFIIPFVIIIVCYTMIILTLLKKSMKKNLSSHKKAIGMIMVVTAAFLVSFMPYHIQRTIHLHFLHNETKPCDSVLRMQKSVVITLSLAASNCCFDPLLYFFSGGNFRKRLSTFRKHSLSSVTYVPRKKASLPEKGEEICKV
T1 sequence (Q9NS75 whole entry): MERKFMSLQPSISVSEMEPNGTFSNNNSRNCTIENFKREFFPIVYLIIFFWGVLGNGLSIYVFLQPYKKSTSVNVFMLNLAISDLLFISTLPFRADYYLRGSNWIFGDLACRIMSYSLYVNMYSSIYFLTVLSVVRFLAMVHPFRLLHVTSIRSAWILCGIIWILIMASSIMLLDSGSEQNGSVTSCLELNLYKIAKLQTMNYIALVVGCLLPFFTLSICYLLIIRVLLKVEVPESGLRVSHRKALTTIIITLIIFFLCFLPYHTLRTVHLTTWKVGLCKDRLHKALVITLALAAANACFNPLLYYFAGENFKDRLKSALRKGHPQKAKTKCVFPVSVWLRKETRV

Cavia porcellus [3] = organism: Cavia porcellus; assay: Compound was tested for LTD4 induced guinea pig trachea contraction; format: functional
[4] = Inhibitory activity against LT biosynthesis; […]; format: functional
Rattus norvegicus [5] = assay: Compound was tested for in vivo inhibition against rat ionophore LTB4 formation; format: functional
Monkey = assay: Compound was tested for in vivo inhibition against squirrel monkey antigen bronchospasm at 1 mg/kg; format: functional; settings: Bronchiole, in Primates
Rattus norvegicus [6] = assay: Compound was tested for in vivo inhibition against rat antigen bronchospasm; format: functional
Homo sapiens [7] = organism: Homo sapiens; assay: Compound was tested in vitro inhibitory activity against human neutrophil CD11b/CD18.; format: functional
Cavia porcellus [8] = organism: Cavia porcellus; assay: Compound was tested for LTD4 induced guinea pig trachea contraction.; format: functional
Homo sapiens [9] = assay: Compound was shown 8 fold shift in LTD4 dose response curve 2 hours after 250 mg oral dose.; format: functional
Homo sapiens [10] = organism: Homo sapiens; assay: Compound was tested for in vitro inhibition on human PMNL.; format: functional
Cavia porcellus [11] = assay: Compound was tested for in vivo inhibition on gp antigen bronchospasm.; format: functional; settings: Bronchiole
[12] = phase 1 oral half life at a dose 400 mg.; format: ADME, organism-based; settings: human, in vivo
Rattus norvegicus [13] = assay: Compound was tested for in vivo inhibition on rat PMNL.; format: functional
Cavia porcellus [14] = organism: Cavia porcellus; assay: Compound was tested for in vitro inhibition against broken guinea pig peritoneal exudate cells; format: functional
Cavia porcellus [15] = assay: Compound was tested for in vivo inhibition against antigen bronchospasm; format: functional; settings: Bronchiole
Homo sapiens [16] = organism: Homo sapiens; assay: Compound was tested for in vitro inhibition against human PMNL; format: functional
Rattus norvegicus [17] = organism: Rattus norvegicus; assay: Compound was tested for in vitro inhibition against rat blood; format: functional
Phosphodiesterase 4 = Phosphodiesterase 4 (Homo sapiens, UniProt P27815+Q08499+Q07343+Q08493); assay: Inhibition of Phosphodiesterase 4; format: protein assay
RBL-2H3 = assay: Compound was tested for in vitro inhibition against 5-LO translocation in rat basophilic leukemia cells (RBL-2H3); format: functional, cell-based
Mus musculus [18] = organism: Mus musculus; assay: Compound was tested for in vitro inhibition against murine macrophage; format: functional
Phosphodiesterase 3 = Phosphodiesterase 3 (Homo sapiens, UniProt Q14432+Q13370); assay: Inhibition of Phosphodiesterase 3; format: protein assay
Homo sapiens [19] = organism: Homo sapiens; assay: Compound was tested in vitro for inhibitory activity in LTB4 induced neutrophil degranulation.; format: functional, organism-based
Homo sapiens [20] = organism: Homo sapiens; assay: Compound was tested in vitro for inhibitory activity in LTB4 induced chemotaxis; format: functional, organism-based
Cavia porcellus [21] = assay: Compound was tested in vivo for LTB4 induced neutrophil chemotaxis in guinea pig.(orally) at duration 21 h; format: functional; settings: po
[22] = biological target: Leukotriene B4 receptor 1 (Homo sapiens, UniProt Q15722); assay: Compound was tested for inhibitory activity against human neutrophil LTB4 receptor binding
Chain of Leukotriene B4 receptor 1 (Q15722 whole entry): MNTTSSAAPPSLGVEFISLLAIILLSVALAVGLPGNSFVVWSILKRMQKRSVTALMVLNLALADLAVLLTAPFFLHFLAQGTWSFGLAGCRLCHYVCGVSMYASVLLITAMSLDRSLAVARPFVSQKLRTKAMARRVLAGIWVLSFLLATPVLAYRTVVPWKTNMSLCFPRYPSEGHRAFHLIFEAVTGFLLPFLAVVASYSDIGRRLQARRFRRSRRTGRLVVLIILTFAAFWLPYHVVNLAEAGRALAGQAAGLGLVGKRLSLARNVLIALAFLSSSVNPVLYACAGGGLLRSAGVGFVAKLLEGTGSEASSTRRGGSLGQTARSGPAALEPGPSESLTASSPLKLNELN

Cavia porcellus [23] = assay: Compound was tested in vivo inhibitory activity against PMA induced ear edema in guinea pig (orally); format: functional; settings: po
Cavia porcellus [24] = assay: compound was tested in vivo for LTB4 induced neutrophil chemotaxis in guinea pig(orally) at duration 24 h; format: functional; settings: po
Homo sapiens [25] = organism: Homo sapiens; assay: Compound was tested in vitro for inhibitory activity in LTB4 induced neutrophil degranulation; format: functional
Cavia porcellus [26] = assay: Compound was tested in vivo inhibitory activity against LTB4 induced neutropenia in guinea pig.(orally); format: functional; settings: po
Homo sapiens [27] = organism: Homo sapiens; assay: Compound was tested in vitro inhibitory activity against human neutrophil degranulation.; format: functional
Cavia porcellus [28] = assay: Compound was tested in vivo inhibitory activity against LTB4 induced neutrophil influx in guinea pig(orally); format: functional; settings: po
Cavia porcellus [29] = assay: Compound was tested in vivo inhibitory activity against AA induced ear edema; format: functional
Mus musculus [30] = assay: Compound was tested in vivo inhibitory activity against LTB4 induced mouse peritonitis (orally); format: functional; settings: po
Homo sapiens [31] = organism: Homo sapiens; assay: Compound was tested in vitro inhibitory activity against […] induced Ca mobilization.; format: functional, organism-based
Mus musculus [32] = assay: Compound was tested in vivo inhibitory activity against LTB4 induced neutrophil cutaneous influx in mouse.; format: functional
Homo sapiens [33] = organism: Homo sapiens; assay: Compound was tested in vitro inhibitory activity against […] induced chemotaxis of human neutrophil; format: functional
Cavia porcellus [34] = assay: Compound was tested in vivo inhibitory activity to block 12 (R)-HETE skin inflammation (peroral administration) at 3 mg/kg; format: functional; settings: route oral
Cavia porcellus [35] = assay: Compound was tested in vivo inhibitory activity against LTB4 induced neutrophil cutaneous influx in guinea pig; format: functional
Homo sapiens [36] = assay: Shift in LTB-4 dose response curve for CD11b upregulation in normal volunteers; format: functional
[37] = biological target: T2, Cysteinyl leukotriene receptor 1 (Homo sapiens, UniProt Q9Y271); assay: Compound were tested for inhibitory activity against Cysteinyl leukotriene D4 receptor
T2 sequence (Q9Y271 whole entry): T1 sequence (Q9Y271 whole entry)

Homo sapiens [38] = assay: Fold shift in LTD4 dose response curve following 280 mg intravenous dose in asthmatic patients.; format: functional

SMILES: O=C(O)CCS[C@@H](CC(=O)O)c1ccccc1CCCCCCCCc1ccccc1
- Activity (Homo sapiens [1]): Active
- Ki [2]: 60 nM

SMILES: CCCCCCCCC/C=C\C=C\[C@@H](SCCC(=O)O)[C@@H](O)c1cccc(-c2nnn[nH]2)c1
- Kb (Cavia porcellus [3]; read-out: pA2 (converted)): 5.01 nM

SMILES: CC(C)c1ccc2c(c1)c(SC(C)(C)C)c(CC(C)(C)C(=O)O)n2Cc1ccc(Cl)cc1
- IC50 [4]: 5 nM
- ED50 (Rattus norvegicus [5]): 0.2 mg/kg
- inhibition in vivo at 1 mg/kg (Monkey): 85%
- ED50 (Rattus norvegicus [6]): 0.036 mg/kg

SMILES: CCc1cc(-c2ccc(F)cc2)c(O)cc1OCCCOc1ccc2c(=O)c3cc(C(=O)O)ccc3oc2c1CCC(=O)O
- IC50 (Homo sapiens [7]): 1.2 nM

SMILES: O=C(O)CC[C@@H](/C=C\Cc1ccc(OCCCCOc2ccccc2)cc1)Sc1ccc(C(=O)O)cc1
- pKB (Cavia porcellus [8]): 8.4
- Activity (Homo sapiens [9]): 8

SMILES: CCCc1c(OCCCC/C=C\C=C\[C@H](Sc2ccc3c(=O)cc(C(=O)[O-])oc3c2)[C@H](O)c2cccc(C(F)(F)F)c2)ccc(C(C)=O)c1O.[Na+]
- Ki [2]: 26 nM

SMILES: CCCc1c(OCCCOc2ccc(C(=O)NC)c(OC)c2CC2CC2)ccc2c1OC(CCC(=O)O)CC2 (stereo not drawn)
- IC50 (Homo sapiens [19]): 29 nM
- IC50 (Homo sapiens [20]): 38 nM
- ED50 (Cavia porcellus [21]): 0.09 mg/kg
- IC50 [22]: 1.5 nM

SMILES: CCCc1c(OCCCOc2ccc(C(=O)NC)c(OC)c2CC2CC2)ccc2c1O[C@H](CCC(=O)O)CC2
- IC50 (Homo sapiens [20]): 32 nM
- ED50 (Cavia porcellus [23]): < 2.5 mg/kg
- ED50 (Cavia porcellus [24]): 0.07 mg/kg
- IC50 [22]: 1.3 nM
- IC50 (Homo sapiens [25]): 19 nM

SMILES: COc1ccc(CCCCCCCCOc2ccc(CSCc3cccc(C(=O)O)c3)nc2/C=C/C(=O)O)cc1
- ED50 (Cavia porcellus [29]): 0.58 mg ear-1
- ED50 (Mus musculus [30]): 7.1 mg/kg

SMILES: O=C(O)C1(c2ccc3c(c2)OC[C@H](Cc2ccc(-c4ccccc4)cc2)[C@H]3O)CCCC1
- IC50 (Homo sapiens [31]): 940 nM
- ED50 (Mus musculus [32]): 4.2 mg/kg
- IC50 (Homo sapiens [33]): 5 nM
- inhibition in vivo at 3 mg/kg (Cavia porcellus [34]): 75%
- ED50 (Cavia porcellus [35]): 0.3 mg/kg
- Kb (Homo sapiens [7]; read-out: pA2 (converted)): 10 nM
- Activity (Homo sapiens [36]): 10

More lines, main results first:

- IC50 (Homo sapiens [10]): 40 nM
- half-life [12]: 2 h
SMILES: CC(=O)N(O)C/C=C/c1cccc(Oc2ccccc2)c1
- ED50 (Cavia porcellus [11]): 10 mg/kg
- ED50 (Rattus norvegicus [13]): 54 mg/kg

- IC50 (Cavia porcellus [14]): 5700 nM
- IC50 (Homo sapiens [16]): 1200 nM
- IC50 (Rattus norvegicus [17]): 8100 nM
- IC50 (Phosphodiesterase 4): 8900 nM
- IC50 (RBL-2H3): 53 nM
- IC50 (Mus musculus [18]): 160 nM
- IC50 (Phosphodiesterase 3): 15800 nM
SMILES: C[C@H](C(=O)O)c1ccc2ccc(OCc3ccc4ccccc4n3)cc2c1.NC(CO)(CO)CO
- ED50 (Cavia porcellus [15]): 7.3 mg/kg

- IC50 (Homo sapiens [27]): 1600 nM
SMILES: COc1ccc(/C=C/CCCCOc2cccc(OCCCCC(=O)O)c2CCC(=O)O)cc1
- ED50 (Cavia porcellus [26]): 25.6 mg/kg
- ED50 (Cavia porcellus [28]): 5.3 mg/kg

- IC50 [37]: 3.1 nM
SMILES: CN(C)C(=O)CCS[C@H](SCCC(=O)[O-])c1cccc(/C=C/c2ccc3ccc(Cl)cc3n2)c1.[Na+]
- pKB (Cavia porcellus [3]): 8.8

- Ki [2]: 0.2 nM
SMILES: CN(C)C(=O)CCSC(SCCC(=O)[O-])c1cccc(/C=C/c2ccc3ccc(Cl)cc3n2)c1.[Na+] (stereo not drawn)
- Activity (Homo sapiens [38]): >83
